Common to all, as to assay type: biochemical
The target of one experiment is T1, Zap-70 (Homo sapiens, UniProt P43403).
T1 construct: Kinases are expressed as either kinase domains or full length constructs; made in house
T1 sequence (P43403 1-619): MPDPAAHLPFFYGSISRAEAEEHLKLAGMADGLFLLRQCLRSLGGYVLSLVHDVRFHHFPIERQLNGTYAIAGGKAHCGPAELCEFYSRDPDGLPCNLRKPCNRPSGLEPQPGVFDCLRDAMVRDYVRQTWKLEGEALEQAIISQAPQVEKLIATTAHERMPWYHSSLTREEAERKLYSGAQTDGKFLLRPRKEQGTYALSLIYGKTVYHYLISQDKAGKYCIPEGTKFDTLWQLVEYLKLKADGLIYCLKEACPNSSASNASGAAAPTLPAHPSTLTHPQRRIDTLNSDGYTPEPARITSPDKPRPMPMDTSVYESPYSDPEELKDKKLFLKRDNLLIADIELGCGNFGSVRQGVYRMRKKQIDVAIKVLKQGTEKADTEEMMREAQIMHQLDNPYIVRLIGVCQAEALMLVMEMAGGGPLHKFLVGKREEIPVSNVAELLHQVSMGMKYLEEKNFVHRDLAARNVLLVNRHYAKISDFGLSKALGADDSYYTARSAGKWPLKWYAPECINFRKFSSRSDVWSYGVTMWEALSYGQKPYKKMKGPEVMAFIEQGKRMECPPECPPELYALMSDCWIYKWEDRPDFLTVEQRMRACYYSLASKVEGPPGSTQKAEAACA
The experiment in a line: Kinase inhibition assay (33P transfer), Zap-70. To be noted: Table 3; read-out: Zap-1. The method, boiled down: (§1)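 Radiometric readout: 33P incorporated into surface-bound poly(Glu,Tyr) 4:1 or poly(Arg,Ser) 3:1 is counted by liquid scintillation after a 0.5% phosphoric acid wash. Enzymes were GST or polyHis fusions (kinase domain or full length) from E. coli or High Five insect cells.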

The target of another experiment is T2, Itk (Homo sapiens, UniProt Q08881).
T2 construct: Kinases are expressed as either kinase domains or full length constructs; made in house
T2 sequence (Q08881 1-620): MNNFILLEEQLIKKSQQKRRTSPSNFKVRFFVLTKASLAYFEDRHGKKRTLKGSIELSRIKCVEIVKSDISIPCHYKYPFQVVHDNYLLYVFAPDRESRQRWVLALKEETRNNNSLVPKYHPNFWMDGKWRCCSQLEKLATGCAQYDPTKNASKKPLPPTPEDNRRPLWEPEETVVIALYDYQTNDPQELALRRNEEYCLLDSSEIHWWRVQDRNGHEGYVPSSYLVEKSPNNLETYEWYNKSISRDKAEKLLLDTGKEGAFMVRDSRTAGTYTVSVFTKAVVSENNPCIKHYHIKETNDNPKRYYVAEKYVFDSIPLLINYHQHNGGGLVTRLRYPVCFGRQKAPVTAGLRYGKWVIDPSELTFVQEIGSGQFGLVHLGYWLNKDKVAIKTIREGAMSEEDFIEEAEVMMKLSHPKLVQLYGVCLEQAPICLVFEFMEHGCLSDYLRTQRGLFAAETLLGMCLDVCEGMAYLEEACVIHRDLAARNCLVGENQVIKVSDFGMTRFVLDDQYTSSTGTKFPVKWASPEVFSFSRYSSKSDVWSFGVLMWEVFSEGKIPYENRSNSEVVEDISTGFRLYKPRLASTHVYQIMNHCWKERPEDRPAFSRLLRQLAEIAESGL
Nature of the experiment: Kinase inhibition assay (33P transfer), Itk. Conditions: Table 3; read-out: Itk-1. The method in brief:
(§2)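 Radiometric format: recombinant tagged kinase (catalytic domain or whole protein, sometimes combined with regulatory polypeptides) phosphorylates immobilised poly(Glu,Tyr) 4:1 or poly(Arg,Ser) 3:1 using [33P]ATP. Wells are washed in 0.5% phosphoric acid, then counted. IC50 is taken where substrate labelling falls by half.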

Another experiment deals with T3, Kdr (Homo sapiens, UniProt P35968).
T3 construct: Kinases are expressed as either kinase domains or full length constructs; made in house
T3 sequence (P35968 20-1356, species assumed): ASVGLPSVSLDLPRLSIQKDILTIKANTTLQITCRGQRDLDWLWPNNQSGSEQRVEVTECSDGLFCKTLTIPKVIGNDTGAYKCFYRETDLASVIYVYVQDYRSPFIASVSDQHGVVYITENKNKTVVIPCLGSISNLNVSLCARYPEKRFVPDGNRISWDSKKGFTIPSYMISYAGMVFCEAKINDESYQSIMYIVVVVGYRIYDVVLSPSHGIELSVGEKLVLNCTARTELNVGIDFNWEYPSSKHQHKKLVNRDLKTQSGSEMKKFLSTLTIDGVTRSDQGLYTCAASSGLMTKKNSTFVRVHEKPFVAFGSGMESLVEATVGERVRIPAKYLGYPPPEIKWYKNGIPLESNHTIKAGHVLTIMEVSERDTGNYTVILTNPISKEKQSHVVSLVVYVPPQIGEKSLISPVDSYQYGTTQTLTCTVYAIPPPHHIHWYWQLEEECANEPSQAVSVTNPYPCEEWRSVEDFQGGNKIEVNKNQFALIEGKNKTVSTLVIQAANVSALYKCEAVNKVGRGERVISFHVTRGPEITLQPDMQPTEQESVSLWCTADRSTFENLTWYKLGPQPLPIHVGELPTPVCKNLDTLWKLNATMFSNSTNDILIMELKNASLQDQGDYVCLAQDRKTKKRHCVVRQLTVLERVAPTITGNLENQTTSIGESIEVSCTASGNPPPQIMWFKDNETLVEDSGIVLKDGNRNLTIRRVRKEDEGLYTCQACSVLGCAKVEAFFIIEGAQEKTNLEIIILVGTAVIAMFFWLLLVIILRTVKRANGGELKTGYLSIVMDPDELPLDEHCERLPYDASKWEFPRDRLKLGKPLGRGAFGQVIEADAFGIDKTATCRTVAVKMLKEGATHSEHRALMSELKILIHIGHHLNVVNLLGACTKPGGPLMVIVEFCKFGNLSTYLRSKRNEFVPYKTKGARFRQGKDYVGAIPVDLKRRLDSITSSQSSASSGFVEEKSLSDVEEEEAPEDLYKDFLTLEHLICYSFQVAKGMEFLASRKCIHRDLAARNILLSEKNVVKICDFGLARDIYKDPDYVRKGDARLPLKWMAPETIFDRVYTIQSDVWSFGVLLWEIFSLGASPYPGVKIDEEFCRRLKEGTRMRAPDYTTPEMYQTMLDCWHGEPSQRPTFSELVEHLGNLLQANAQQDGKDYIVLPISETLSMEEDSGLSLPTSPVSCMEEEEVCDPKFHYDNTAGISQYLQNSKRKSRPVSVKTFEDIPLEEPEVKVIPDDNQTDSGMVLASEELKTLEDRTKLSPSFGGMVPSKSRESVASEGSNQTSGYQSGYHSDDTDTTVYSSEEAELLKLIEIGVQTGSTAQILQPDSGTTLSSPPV
Nature of the experiment: Kinase inhibition assay (33P transfer), Kdr. To be noted: Table 3; read-out: KDR-1. The method, boiled down:
as §1

The target of a further experiment is T4, Ret-1 (Homo sapiens, UniProt P07949).
T4 construct: Kinases are expressed as either kinase domains or full length constructs; made in house
T4 sequence (P07949 29-1114): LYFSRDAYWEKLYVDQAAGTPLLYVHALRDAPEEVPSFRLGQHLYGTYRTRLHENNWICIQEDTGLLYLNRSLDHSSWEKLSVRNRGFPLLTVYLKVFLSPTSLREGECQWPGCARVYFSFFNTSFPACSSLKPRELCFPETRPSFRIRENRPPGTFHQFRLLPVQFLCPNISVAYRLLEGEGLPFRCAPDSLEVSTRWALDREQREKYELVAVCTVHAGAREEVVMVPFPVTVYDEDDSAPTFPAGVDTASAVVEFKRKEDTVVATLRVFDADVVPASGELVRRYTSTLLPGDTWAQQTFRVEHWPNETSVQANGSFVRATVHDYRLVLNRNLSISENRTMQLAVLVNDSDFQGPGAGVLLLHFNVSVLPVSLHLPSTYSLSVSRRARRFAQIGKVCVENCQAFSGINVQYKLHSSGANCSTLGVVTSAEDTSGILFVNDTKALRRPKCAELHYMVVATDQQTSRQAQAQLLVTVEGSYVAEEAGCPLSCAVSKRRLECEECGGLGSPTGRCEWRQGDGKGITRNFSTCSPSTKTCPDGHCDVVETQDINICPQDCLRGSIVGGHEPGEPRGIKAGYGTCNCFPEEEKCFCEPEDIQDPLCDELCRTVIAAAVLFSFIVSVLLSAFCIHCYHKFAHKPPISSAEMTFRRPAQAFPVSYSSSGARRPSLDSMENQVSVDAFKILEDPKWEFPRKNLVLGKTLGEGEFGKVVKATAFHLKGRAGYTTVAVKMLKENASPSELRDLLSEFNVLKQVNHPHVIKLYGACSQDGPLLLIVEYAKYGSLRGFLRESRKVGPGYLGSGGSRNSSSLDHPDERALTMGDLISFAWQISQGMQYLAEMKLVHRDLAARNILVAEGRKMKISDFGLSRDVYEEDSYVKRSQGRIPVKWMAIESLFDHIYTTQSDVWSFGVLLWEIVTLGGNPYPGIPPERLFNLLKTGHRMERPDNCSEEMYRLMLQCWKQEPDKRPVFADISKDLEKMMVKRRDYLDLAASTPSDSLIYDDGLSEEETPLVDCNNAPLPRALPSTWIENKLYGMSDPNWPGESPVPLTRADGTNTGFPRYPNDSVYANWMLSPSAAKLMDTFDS
Nature of the experiment: Kinase inhibition assay (33P transfer), Ret. To be noted: Table 6, Ret-1 kinase inhibition class.

In the next experiment the target is T5, ErbB2 (Homo sapiens, UniProt P04626).
T5 construct: Kinases are expressed as either kinase domains or full length constructs; made in house
T5 sequence (P04626 23-1255, species assumed): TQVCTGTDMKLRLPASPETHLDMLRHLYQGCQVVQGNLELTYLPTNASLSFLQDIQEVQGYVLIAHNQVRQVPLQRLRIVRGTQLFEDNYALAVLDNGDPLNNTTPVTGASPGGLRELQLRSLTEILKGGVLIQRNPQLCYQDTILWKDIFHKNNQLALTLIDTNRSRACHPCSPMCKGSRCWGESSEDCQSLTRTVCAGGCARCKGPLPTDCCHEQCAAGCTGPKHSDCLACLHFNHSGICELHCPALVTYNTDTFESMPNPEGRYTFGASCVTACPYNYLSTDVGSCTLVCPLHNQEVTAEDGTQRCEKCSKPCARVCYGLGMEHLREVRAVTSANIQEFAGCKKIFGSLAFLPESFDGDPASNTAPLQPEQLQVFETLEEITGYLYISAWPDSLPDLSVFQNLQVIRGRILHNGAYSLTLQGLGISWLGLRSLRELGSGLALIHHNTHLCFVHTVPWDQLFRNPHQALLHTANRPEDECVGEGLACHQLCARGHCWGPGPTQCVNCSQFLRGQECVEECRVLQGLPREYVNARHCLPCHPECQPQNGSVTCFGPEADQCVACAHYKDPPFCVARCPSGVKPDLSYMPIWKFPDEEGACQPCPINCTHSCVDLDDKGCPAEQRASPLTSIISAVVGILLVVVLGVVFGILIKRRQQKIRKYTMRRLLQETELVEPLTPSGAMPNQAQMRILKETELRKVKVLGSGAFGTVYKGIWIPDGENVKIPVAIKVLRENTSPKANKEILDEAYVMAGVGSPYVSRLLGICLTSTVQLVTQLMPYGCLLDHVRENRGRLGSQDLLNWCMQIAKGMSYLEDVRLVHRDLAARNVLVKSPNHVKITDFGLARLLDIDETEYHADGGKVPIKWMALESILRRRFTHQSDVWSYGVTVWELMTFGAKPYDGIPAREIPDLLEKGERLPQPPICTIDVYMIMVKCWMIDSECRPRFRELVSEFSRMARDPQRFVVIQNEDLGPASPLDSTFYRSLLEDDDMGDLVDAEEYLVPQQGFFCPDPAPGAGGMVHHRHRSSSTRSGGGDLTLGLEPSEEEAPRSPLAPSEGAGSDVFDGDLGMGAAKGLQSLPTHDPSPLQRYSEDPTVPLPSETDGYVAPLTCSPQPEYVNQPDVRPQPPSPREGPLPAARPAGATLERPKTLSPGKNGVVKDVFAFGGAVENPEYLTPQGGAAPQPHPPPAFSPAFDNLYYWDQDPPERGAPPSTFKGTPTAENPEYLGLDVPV
Nature of the experiment: Kinase inhibition assay (33P transfer), ErbB2. To be noted: read-out: ErbB2-2. The method, boiled down:
as §2

The target in the next experiment is T6, PDGFRB (Homo sapiens, UniProt P09619).
T6 construct: Kinases are expressed as either kinase domains or full length constructs; made in house
T6 sequence (P09619 33-1106, species assumed): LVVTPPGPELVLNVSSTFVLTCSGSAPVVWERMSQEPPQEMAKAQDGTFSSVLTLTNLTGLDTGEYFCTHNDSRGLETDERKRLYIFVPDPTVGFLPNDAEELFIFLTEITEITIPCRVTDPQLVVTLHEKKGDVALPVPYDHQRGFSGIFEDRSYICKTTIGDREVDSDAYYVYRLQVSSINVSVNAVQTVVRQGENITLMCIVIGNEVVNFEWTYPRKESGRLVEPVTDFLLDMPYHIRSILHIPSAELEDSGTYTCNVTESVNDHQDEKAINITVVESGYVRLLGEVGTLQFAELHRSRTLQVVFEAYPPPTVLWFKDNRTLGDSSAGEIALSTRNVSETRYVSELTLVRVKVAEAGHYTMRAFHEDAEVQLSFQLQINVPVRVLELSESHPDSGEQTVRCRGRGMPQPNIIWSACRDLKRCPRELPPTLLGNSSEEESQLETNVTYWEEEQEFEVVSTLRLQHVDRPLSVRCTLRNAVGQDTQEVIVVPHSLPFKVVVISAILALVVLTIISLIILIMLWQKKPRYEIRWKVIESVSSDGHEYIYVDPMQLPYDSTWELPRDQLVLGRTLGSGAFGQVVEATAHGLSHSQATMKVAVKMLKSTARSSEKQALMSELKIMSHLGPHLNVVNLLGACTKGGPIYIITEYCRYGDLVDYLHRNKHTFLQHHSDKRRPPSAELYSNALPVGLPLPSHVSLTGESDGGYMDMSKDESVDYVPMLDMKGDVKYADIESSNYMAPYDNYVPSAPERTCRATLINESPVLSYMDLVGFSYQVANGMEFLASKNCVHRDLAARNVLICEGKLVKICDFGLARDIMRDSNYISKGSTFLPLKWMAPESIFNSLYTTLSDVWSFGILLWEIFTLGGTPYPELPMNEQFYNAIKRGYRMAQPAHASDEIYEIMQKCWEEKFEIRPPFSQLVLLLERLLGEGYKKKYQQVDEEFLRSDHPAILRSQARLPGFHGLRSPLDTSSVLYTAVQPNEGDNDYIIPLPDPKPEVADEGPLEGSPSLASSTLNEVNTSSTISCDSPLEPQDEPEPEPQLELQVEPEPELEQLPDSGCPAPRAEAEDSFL
Nature of the experiment: Kinase inhibition assay (33P transfer), PDGFRB. To be noted: read-out: PDGFRB-1.

In the case of `COc1cc(Nc2ncnc(Nc3ccccc3F)n2)cc(OC)c1OC` [Compound 65], the IC50 on Zap-70 was greater than 12.1 µM; at Itk it was greater than 12.1 µM; on Kdr it was 1.08 to 6.46 µM; at Ret-1, 1.08 to 6.46 µM.
As for `COc1cc(Nc2ncnc(Nc3ccc(N(C)C)cc3)n2)cc(OC)c1OC` [Compound 27], the IC50 at Zap-70 is greater than 11.4 µM; on Itk, greater than 11.4 µM; at Kdr, less than 1.01 µM; against Ret-1, 1.01 to 6.05 µM.
As for `COc1cc(Nc2ncnc(-n3c(Nc4ccc(F)cc4)nc4ccccc43)n2)cc(OC)c1OC` [Compound 387], the IC50 is greater than 9.23 µM at Zap-70, greater than 9.23 µM on Itk and less than 0.821 µM at Kdr.
In the case of `COc1ccc(Nc2ncnc(Nc3cc(OC)c(OC)c(OC)c3)n2)cc1` [Compound 89], the IC50 at Zap-70 was greater than 11.7 µM; on Itk, greater than 11.7 µM; on Kdr it was less than 1.04 µM; at Ret-1 it was 1.04 to 6.26 µM.
With `COc1cc(Nc2ncnc(Nc3cc(-c4ccccc4)nn3C)n2)cc(OC)c1OC` [Compound 394], the figures for the IC50 at Zap-70, at Itk and on Kdr were greater than 10.4 µM, greater than 10.4 µM and less than 0.923 µM, respectively.
Turning to `COc1cc(Nc2ncnc(Nc3ccc4c(c3)Cc3ccccc3-4)n2)cc(OC)c1OC` [Compound 95], the IC50 at Zap-70 is 7.93 to 10.2 µM; on Itk, greater than 10.2 µM; at Kdr, 0.906 to 5.44 µM.
For `COc1cc(Nc2ncnc(Nc3ccc(O)cc3)n2)cc(OC)c1OC` [Compound 85], the IC50 is greater than 12.2 µM on Zap-70, 1.08 to 6.5 µM at Itk, less than 1.08 µM at Kdr and 1.08 to 6.5 µM at Ret-1.
On to `COc1cc(Nc2ncnc(Nc3ccc(C(C)C)cc3)n2)cc(OC)c1OC` [Compound 66], for which the IC50 on Zap-70 is 6.07 to 8.85 µM; on Itk, greater than 11.4 µM; on Kdr, 1.01 to 6.07 µM; on Ret-1, greater than 11.4 µM.
`COc1cc(Nc2ncnc(N(c3ccc(Cl)cc3)c3nc4ccccc4[nH]3)n2)cc(OC)c1OC` [Compound 374]: the results for the IC50 on Zap-70, at Itk and at Kdr were greater than 8.93 µM, greater than 8.93 µM and less than 0.794 µM, respectively.
Regarding `COc1cc(Nc2ncnc(-n3c(Nc4ccc(C(C)C)cc4)nc4ccccc43)n2)cc(OC)c1OC` [Compound 388], the values for the IC50 on Zap-70, at Itk and at Kdr were greater than 8.8 µM, greater than 8.8 µM and 0.782 to 4.69 µM, respectively.
For `NC(=O)c1cccc(Nc2ncnc(-n3c(N)nc4ccccc43)n2)c1` [Compound 395], the IC50 was greater than 13 µM at Zap-70, 1.15 to 6.93 µM on Itk and less than 1.15 µM on Kdr.
With `NC(=O)c1ccc(Nc2ncnc(-n3c(N)nc4ccccc43)n2)cc1` [Compound 396], the IC50 at Zap-70 is greater than 13 µM; at Itk, less than 1.15 µM; on Kdr, less than 1.15 µM.
As to `COC(=O)c1cccc(Nc2ncnc(Nc3cc(-c4ccco4)n[nH]3)n2)c1` [Compound 344], the IC50 was greater than 11.9 µM at Zap-70, greater than 11.9 µM at Itk, less than 1.06 µM at Kdr and 1.06 to 6.36 µM against Ret-1.
With `COc1cc(Nc2ncnc(Nc3cccc(O)c3)n2)cc(OC)c1OC` [Compound 78], the IC50 on Zap-70 is greater than 12.2 µM; on Itk, 1.08 to 6.5 µM; on Kdr, less than 1.08 µM; on Ret-1, less than 1.08 µM.
Regarding `COc1cc(Nc2ncnc(-n3c(Nc4cccc(C(N)=O)c4)nc4ccccc43)n2)cc(OC)c1OC` [Compound 377], the results for the IC50 on Zap-70, at Itk and at Kdr were 0.78 to 4.68 µM, 6.83 to 8.78 µM and 0.78 to 4.68 µM, respectively.
Turning to `COc1cc(Nc2ncnc(Nc3cc(C)[nH]n3)n2)cc(OC)c1OC` [Compound 88], the IC50 on Zap-70 is greater than 12.6 µM; on Itk it was 1.12 to 6.72 µM; on Kdr, less than 1.12 µM.
The matching figures for `COc1cc(Nc2ncnc(-c3c(O)[nH]c4ccccc34)n2)cc(OC)c1OC` [Compound 380]: greater than 11.4 µM, greater than 11.4 µM and less than 1.02 µM.
The matching figures for `COc1cccc(-c2ncnc(Nc3cc(OC)c(OC)c(OC)c3)n2)c1` [Compound 232]: greater than 12.2 µM, greater than 12.2 µM and 1.09 to 6.51 µM.
The matching figures for `COc1cc(Nc2ncnc(Nc3ccc(N4CCOCC4)cc3)n2)cc(OC)c1OC` [Compound 101]: greater than 10.3 µM, greater than 10.3 µM and 0.912 to 5.47 µM.
Consider `COc1cc(Nc2ncnc(-n3c(Nc4ccccc4C)nc4ccccc43)n2)cc(OC)c1OC` [Compound 384], for which the IC50 is greater than 9.31 µM at Zap-70, greater than 9.31 µM at Itk and less than 0.827 µM on Kdr.
With `COc1cc(Nc2ncnc(-n3c(Nc4ccc5[nH]ccc5c4)nc4ccccc43)n2)cc(OC)c1OC` [Compound 376], the IC50 at Zap-70 was greater than 8.85 µM; at Itk, 0.787 to 4.72 µM; on ErbB2, 4.72 to 6.88 µM; at Kdr, less than 0.787 µM.
For `COc1cc(Nc2ncnc(Nc3cc(OC)c(OC)c(OC)c3)n2)cc(OC)c1OC` [Compound 76], the results for the IC50 on Zap-70, at Itk and at Kdr were greater than 10.1 µM, greater than 10.1 µM and 0.902 to 5.41 µM, respectively.
Turning to `COC(=O)c1cccc(Nc2nc3ccccc3n2-c2ncnc(Nc3cc(OC)c(OC)c(OC)c3)n2)c1` [Compound 383], the IC50 was greater than 8.53 µM at Zap-70; 4.55 to 6.63 µM on Itk; 4.55 to 6.63 µM on ErbB2; 0.758 to 4.55 µM at Kdr; less than 0.758 µM on PDGFRB.
Regarding `COc1cc(Nc2ncnc(-n3c(Nc4ccc(C)cc4)nc4ccccc43)n2)cc(OC)c1OC` [Compound 385], the IC50 on Zap-70 is greater than 9.31 µM; at Itk, greater than 9.31 µM; on Kdr, less than 0.827 µM.
Take `COc1cc(Nc2ncnc(Nc3cc(-c4ccco4)n[nH]3)n2)cc(OC)c1` [Compound 365]: the IC50 on Zap-70 is 1.05 to 6.33 µM; on Itk, 1.05 to 6.33 µM; at Kdr, less than 1.05 µM.
In the case of `COc1cc(Nc2ncnc(-n3c(Nc4cccc(C)c4)nc4ccccc43)n2)cc(OC)c1OC` [Compound 386], the IC50 on Zap-70 is greater than 9.31 µM; at Itk, greater than 9.31 µM; at Kdr, less than 0.827 µM.
`COc1cc(Nc2ncnc(-c3ccnc(NCCCO)c3)n2)cc(OC)c1OC` [Compound 180]: the IC50 at Zap-70 is greater than 10.9 µM; on Itk it was greater than 10.9 µM; on Kdr, 0.97 to 5.82 µM.
`COc1cc(Nc2ncnc(-n3c(NCc4ccccc4)nc4ccccc43)n2)cc(OC)c1OC` [Compound 371]: the IC50 is greater than 9.31 µM at Zap-70, greater than 9.31 µM on Itk, greater than 9.31 µM at ErbB2 and less than 0.827 µM at Kdr.
As for `COc1cc(Nc2ncnc(Nc3cc(-c4ccc(Cl)cc4)n[nH]3)n2)cc(OC)c1OC` [Compound 367], the IC50 is greater than 9.91 µM at Zap-70, 0.881 to 5.29 µM on Itk and less than 0.881 µM at Kdr.
The matching figures for `COc1cc(Nc2ncnc(-n3c(Nc4cccc(C(=O)O)c4)nc4ccccc43)n2)cc(OC)c1OC` [Compound 390]: greater than 8.76 µM, greater than 8.76 µM and 0.779 to 4.67 µM.
The like results for `COc1cc(Nc2ncnc(-n3c(Cl)nc4ccccc43)n2)cc(OC)c1OC` [Compound 378] were, in that order, greater than 10.9 µM, greater than 10.9 µM and less than 0.969 µM.
The like results for `C#Cc1cccc(Nc2ncnc(Nc3cc(OC)c(OC)c(OC)c3)n2)c1` [Compound 74] were, in that order, greater than 11.9 µM, greater than 11.9 µM and 1.06 to 6.36 µM.

The record behind these values is patent US7074789B2, “Kinase inhibitors” (Amgen Inc., priority 1999, dated 2006).
